Columns and labels:
Assay type in all cases: biochemical
MAGL [1] = target: MAGL (Homo sapiens (Human), UniProt Q99685); assay: In vitro competitive activity-based protein profiling, MAGL (human); conditions: human proteome; for inhibition at 10 µM: read-out: MAGL % inh. 10 μM (human); for inhibition at 1 µM: read-out: MAGL % inh. 1 μM (human)
Experimental: (§1) In Vitro Competitive Activity-Based Protein Profiling.
(§2) Proteomes (mouse brain membrane fraction or cell lysates for mouse assays; human prefrontal cortex or cell membrane fractions for human assays) (50 μL, 1.0 mg/mL total protein concentration) were preincubated with varying concentrations of inhibitors at 37° C. After 30 min, FP—Rh or HT-01 (1.0 μL, 50 μM in DMSO) was added and the mixture was incubated for another 30 min at 37° C. Reactions were quenched with SDS loading buffer (15 μL-4×) and run on SDS-PAGE. Following gel imaging, serine hydrolase activity was determined by measuring fluorescent intensity of gel bands corresponding to MAGL and FAAH using ImageJ 1.43u software.

FAAH [2] = target: FAAH (Homo sapiens (Human), UniProt O00519); assay: In vitro competitive activity-based protein profiling, FAAH (human); conditions: human proteome; for inhibition at 10 µM: read-out: FAAH % inh. 10 μM (human); for inhibition at 1 µM: read-out: FAAH % inh. 1 μM (human)
Experimental: as §1, §2

MAGL [3] = target: MAGL (Mus musculus (Mouse), UniProt O35678); assay: In vitro competitive activity-based protein profiling, MAGL (mouse); conditions: for inhibition at 1 µM: read-out: MAGL % inh. 1 μM (mouse)
Summary of the method: (§3)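 Competitive ABPP; proteome 1.0 mg/mL total protein; mouse = brain membranes or cell lysates, human = prefrontal cortex or cell membranes. Inhibitor preinc 30 min, 37° C; FP-Rh/HT-01 (50 μM DMSO stock) 30 min, 37° C; SDS-PAGE, in-gel fluorescence of MAGL/FAAH bands.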

FAAH [4] = target: FAAH (Mus musculus (Mouse), UniProt O08914); assay: In vitro competitive activity-based protein profiling, FAAH (mouse); conditions: for inhibition at 1 µM: read-out: FAAH % inh. 1 μM (mouse)
Summary of the method: as §3

Sequence of FAAH (Mus musculus (Mouse), UniProt O08914) (O08914 whole entry): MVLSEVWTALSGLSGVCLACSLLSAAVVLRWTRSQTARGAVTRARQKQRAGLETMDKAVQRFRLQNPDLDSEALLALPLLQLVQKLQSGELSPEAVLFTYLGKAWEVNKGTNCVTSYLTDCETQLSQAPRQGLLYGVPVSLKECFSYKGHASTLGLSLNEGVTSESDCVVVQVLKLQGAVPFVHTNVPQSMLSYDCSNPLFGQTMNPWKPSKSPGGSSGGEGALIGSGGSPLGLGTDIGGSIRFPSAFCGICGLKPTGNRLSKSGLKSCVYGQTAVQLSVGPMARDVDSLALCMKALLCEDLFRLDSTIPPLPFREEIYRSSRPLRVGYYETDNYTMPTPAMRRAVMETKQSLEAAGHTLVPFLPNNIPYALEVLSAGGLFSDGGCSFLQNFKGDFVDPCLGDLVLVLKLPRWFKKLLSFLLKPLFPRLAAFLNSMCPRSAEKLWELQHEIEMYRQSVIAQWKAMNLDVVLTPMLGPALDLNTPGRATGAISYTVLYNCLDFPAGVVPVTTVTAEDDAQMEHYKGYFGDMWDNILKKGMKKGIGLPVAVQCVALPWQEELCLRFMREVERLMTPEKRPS
Sequence of MAGL (Homo sapiens (Human), UniProt Q99685) (Q99685 whole entry): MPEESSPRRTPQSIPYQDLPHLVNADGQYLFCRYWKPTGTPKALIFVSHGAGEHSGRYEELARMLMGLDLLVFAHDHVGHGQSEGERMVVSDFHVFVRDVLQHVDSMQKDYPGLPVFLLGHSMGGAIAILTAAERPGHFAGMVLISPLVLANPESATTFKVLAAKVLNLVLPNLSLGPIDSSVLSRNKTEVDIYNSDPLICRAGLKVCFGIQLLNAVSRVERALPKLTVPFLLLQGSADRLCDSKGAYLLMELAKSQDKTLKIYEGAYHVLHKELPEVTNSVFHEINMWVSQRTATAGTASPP
Sequence of MAGL (Mus musculus (Mouse), UniProt O35678) (O35678 whole entry): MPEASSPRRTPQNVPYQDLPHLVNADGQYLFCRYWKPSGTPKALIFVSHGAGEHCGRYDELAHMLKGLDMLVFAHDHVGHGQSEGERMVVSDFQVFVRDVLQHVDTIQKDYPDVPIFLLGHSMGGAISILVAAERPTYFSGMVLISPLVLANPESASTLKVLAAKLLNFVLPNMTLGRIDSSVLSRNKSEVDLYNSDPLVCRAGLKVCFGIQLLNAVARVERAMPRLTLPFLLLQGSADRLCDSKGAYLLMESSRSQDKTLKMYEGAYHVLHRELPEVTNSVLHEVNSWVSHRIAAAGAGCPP
Sequence of FAAH (Homo sapiens (Human), UniProt O00519) (O00519 whole entry): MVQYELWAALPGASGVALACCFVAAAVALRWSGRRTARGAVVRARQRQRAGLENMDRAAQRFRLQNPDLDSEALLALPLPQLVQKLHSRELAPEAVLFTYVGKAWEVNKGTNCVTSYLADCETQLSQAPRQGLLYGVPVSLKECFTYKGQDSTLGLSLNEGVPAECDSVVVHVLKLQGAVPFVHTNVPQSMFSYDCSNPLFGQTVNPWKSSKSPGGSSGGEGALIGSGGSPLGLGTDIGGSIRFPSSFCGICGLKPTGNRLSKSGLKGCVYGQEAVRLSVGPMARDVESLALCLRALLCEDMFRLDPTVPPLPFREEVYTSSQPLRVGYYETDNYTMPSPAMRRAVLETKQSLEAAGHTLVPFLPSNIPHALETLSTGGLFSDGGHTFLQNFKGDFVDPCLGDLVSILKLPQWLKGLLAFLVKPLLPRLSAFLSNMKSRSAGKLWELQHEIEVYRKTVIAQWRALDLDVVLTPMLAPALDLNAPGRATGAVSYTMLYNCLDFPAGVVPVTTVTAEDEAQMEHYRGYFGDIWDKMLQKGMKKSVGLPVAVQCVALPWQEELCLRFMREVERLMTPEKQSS

Compound: CC(=O)N(C)c1cnn(C(=O)N2CCC3(CCN(Cc4ccc(N5CCOCC5)cc4)C3)C2)c1 (stereo not drawn) [Example 3, N-methyl-N-(1-(7-(4-morpholinobenzyl)-2,7-diazaspiro[4.4]nonane-2-carbonyl)-1H-pyrazol-4-yl)acetamide]
- inhibition at 10 µM (MAGL [1]): ≥ 75%
- inhibition at 10 µM (FAAH [2]): ≥ 75%
- inhibition at 1 µM (MAGL [3]; 1 μM): 0 to 25%
- inhibition at 1 µM (FAAH [4]; 1 μM): 50 to 75%

Compound: CC(=O)N(C)c1cnn(C(=O)N2CCC3(CCN(Cc4ccc(N5CCOCC5)cc4C)C3)C2)c1 (stereo not drawn) [Example 5, N-methyl-N-(1-(7-(2-methyl-4-morpholinobenzyl)-2,7-diazaspiro[4.4]nonane-2-carbonyl)-1H-pyrazol-4-yl)acetamide]
- inhibition at 10 µM (MAGL [1]): ≥ 75%
- inhibition at 10 µM (FAAH [2]): ≥ 75%
- inhibition at 1 µM (MAGL [3]; 1 μM): 0 to 25%
- inhibition at 1 µM (FAAH [4]; 1 μM): 50 to 75%

Compound: CS(=O)(=O)Nc1cnn(C(=O)N2CCC3(CCN(Cc4ccc(Cl)c(Cl)c4)C3)C2)c1 (stereo not drawn) [Example 283, N-(1-(7-(3,4-dichlorobenzyl)-2,7-diazaspiro[4.4]nonane-2-carbonyl)-1H-pyrazol-4-yl)methanesulfonamide]
- inhibition at 1 µM (MAGL [1]): ≥ 75%
- inhibition at 1 µM (FAAH [2]): ≥ 75%

Compound: CS(=O)(=O)Nc1cnn(C(=O)N2CCC3(CCN(Cc4ccc(N5CCCC5)cc4C(F)(F)F)C3)C2)c1 (stereo not drawn) [Example 285, N-(1-(7-(4-(pyrrolidin-1-yl)-2-(trifluoromethyl)benzyl)-2,7-diazaspiro[4.4]nonane-2-carbonyl)-1H-pyrazol-4-yl)methanesulfonamide]
- inhibition at 1 µM (MAGL [1]): ≥ 75%
- inhibition at 1 µM (FAAH [2]): ≥ 75%

Compound: CS(=O)(=O)Nc1cnn(C(=O)N2CCC3(CCN(Cc4cccc(Cl)c4Cl)C3)C2)c1 (stereo not drawn) [Example 288, N-(1-(7-(2,3-dichlorobenzyl)-2,7-diazaspiro[4.4]nonane-2-carbonyl)-1H-pyrazol-4-yl)methanesulfonamide]
- inhibition at 1 µM (MAGL [1]): ≥ 75%
- inhibition at 1 µM (FAAH [2]): ≥ 75%

Compound: CS(=O)(=O)Nc1cnn(C(=O)N2CCN(Cc3ccc(-c4cncnc4)cc3C(F)(F)F)CC2)c1 [Example 290, N-(1-(4-(4-(pyrimidin-5-yl)-2-(trifluoromethyl)benzy1)piperazine-1-carbonyl)-1H-pyrazol-4-yl)methanesulfonamide]
- inhibition at 1 µM (MAGL [1]): ≥ 75%
- inhibition at 1 µM (FAAH [2]): ≥ 75%

Compound: CS(=O)(=O)Nc1cnn(C(=O)N2CCC3(CCN(Cc4ccc(N5CCCC5)c(Cl)c4)C3)CC2)c1 [Example 298, N-(1-(2-(3-chloro-4-(pyrrolidin-1-yl)benzyl)-2,8-diazaspiro[4.5]|decane-8-carbonyl)-1H-pyrazol-4-yl)methanesulfonamide]
- inhibition at 1 µM (MAGL [1]): ≥ 75%
- inhibition at 1 µM (FAAH [2]): ≥ 75%

Compound: CN(Cc1ccccc1C(F)(F)F)[C@@H]1C[C@@H]2CN(C(=O)n3cc(NS(C)(=O)=O)cn3)C[C@@H]2C1 [Example 300, N-(1-(cis-5-(methyl(2-(trifluoromethyl)benzyl)amino)octahydrocyclopenta[c]pyrrole-2-carbonyl)-1H-pyrazol-4-yl)methanesulfonamide]
- inhibition at 1 µM (MAGL [1]): ≥ 75%
- inhibition at 1 µM (FAAH [2]): ≥ 75%

Compound: CS(=O)(=O)Nc1cnn(C(=O)N2CCN(Cc3ccc(-c4ccc(C(F)(F)F)nc4)cc3C(F)(F)F)CC2)c1 [Example 301, N-(1-(4-(2-(trifluoromethyl)-4-(6-(trifluoromethyl)pyridin-3-yl)benzyl)piperazine-1-carbonyl)-1H-pyrazol-4-yl)methanesulfonamide]
- inhibition at 10 µM (MAGL [1]): ≥ 75%
- inhibition at 10 µM (FAAH [2]): ≥ 75%

Compound: CS(=O)(=O)Nc1cnn(C(=O)N2CCN(Cc3ccc(-c4ccc(C(N)=O)nc4)cc3C(F)(F)F)CC2)c1 [Example 302]
- inhibition at 1 µM (MAGL [3]; 1 μM): 25 to 50%
- inhibition at 1 µM (FAAH [4]; 1 μM): ≥ 75%

Compound: CS(=O)(=O)Nc1cnn(C(=O)N2CCN(Cc3ccc(-c4ncco4)cc3C(F)(F)F)CC2)c1 [Example 303, N-(1-(4-(4-(oxazol-2-yl)-2-(trifluoromethyl)benzy)piperazine-1-carbonyl)-1H-pyrazol-4-yl)methanesulfonamide]
- IC50 (MAGL [3]): ≤ 100 nM
- inhibition at 1 µM (MAGL [3]; 1 μM): 50 to 75%
- IC50 (FAAH [4]): 1000 to 10000 nM
- inhibition at 1 µM (FAAH [4]; 1 μM): ≥ 75%

Compound: CS(=O)(=O)Nc1cnn(C(=O)N2CCN(Cc3ccc(-c4nc5ccccc5o4)cc3C(F)(F)F)CC2)c1 [Example 304, N-(1-(4-(4-(benzo[d]oxazol-2-yl)-2-(trifluoromethyl)benzyl)piperazine-1-carbonyl)-1H-pyrazol-4-yl)methanesulfonamide]
- inhibition at 1 µM (MAGL [1]): 25 to 50%
- inhibition at 1 µM (FAAH [2]): ≥ 75%

Compound: CS(=O)(=O)Nc1cnn(C(=O)N2CCN(Cc3ccc(-c4nc5ccccc5s4)cc3C(F)(F)F)CC2)c1 [Example 305, N-(1-(4-(4-(benzo[d]thiazol-2-yl)-2-(trifluoromethyl)benzyl)piperazine-1-carbonyl)-1H-pyrazol-4-yl)methanesulfonamide]
- inhibition at 1 µM (MAGL [1]): ≥ 75%
- inhibition at 1 µM (FAAH [2]): ≥ 75%

Compound: Cc1nnc(-c2ccc(CN3CCN(C(=O)n4cc(NS(C)(=O)=O)cn4)CC3)c(C(F)(F)F)c2)o1 [Example 306, N-(1-(4-(4-(5-methyl-1,3,4-oxadiazol-2-yl)-2-(trifluoromethyl)benzyl)piperazine-1-carbonyl)-1H-pyrazol-4-yl)methanesulfonamide]
- inhibition at 1 µM (MAGL [1]): 50 to 75%
- inhibition at 1 µM (FAAH [2]): 0 to 25%

Compound: Cc1noc(-c2ccc(CN3CCN(C(=O)n4cc(NS(C)(=O)=O)cn4)CC3)c(C(F)(F)F)c2)n1 [Example 307, N-(1-(4-(4-(3-methyl-1,2,4-oxadiazol-5-yl)-2-(trifluoromethyl)benzyl)piperazine-1-carbonyl)-1H-pyrazol-4-yl)methanesulfonamide]
- inhibition at 1 µM (MAGL [3]; 1 μM): 25 to 50%
- inhibition at 1 µM (FAAH [4]; 1 μM): ≥ 75%

Compound: Cc1nccn1-c1ccc(CN2CCN(C(=O)n3cc(NS(C)(=O)=O)cn3)CC2)c(C(F)(F)F)c1 [Example 308, N-(1-(4-(4-(2-methyl-1H-imidazol-1-yl)-2-(trifluoromethyl)benzyl)piperazine-1-carbonyl)-1H-pyrazol-4-yl)methanesulfonamide]
- inhibition at 1 µM (MAGL [1]): ≥ 75%
- inhibition at 1 µM (FAAH [2]): 0 to 25%

Compound: CS(=O)(=O)Nc1cnn(C(=O)N2CCN(Cc3ccc(-c4ccncn4)cc3C(F)(F)F)CC2)c1 [Example 309, N-(1-(4-(4-(pyrimidin-4-yl)-2-(trifluoromethyl)benzyl)piperazine-1-carbonyl)-1H-pyrazol-4-yl)methanesulfonamide]
- inhibition at 1 µM (MAGL [3]; 1 μM): 25 to 50%
- inhibition at 1 µM (FAAH [4]; 1 μM): ≥ 75%

Compound: CS(=O)(=O)Nc1cnn(C(=O)N2CCN(Cc3ccc(-c4ncccn4)cc3C(F)(F)F)CC2)c1 [Example 310]
- inhibition at 1 µM (MAGL [1]): ≥ 75%
- inhibition at 1 µM (FAAH [2]): ≥ 75%

Compound: CS(=O)(=O)Nc1cnn(C(=O)N2CCN(Cc3ccc(-c4cccnn4)cc3C(F)(F)F)CC2)c1 [Example 311, N-(1-(4-(4-(pyridazin-3-yl)-2-(trifluoromethyl)benzyl)piperazine-1-carbonyl)-1H-pyrazol-4-yl)methanesulforamide]
- inhibition at 1 µM (MAGL [1]): ≥ 75%
- inhibition at 1 µM (FAAH [2]): 50 to 75%

Compound: CS(=O)(=O)Nc1cnn(C(=O)N2CCN(Cc3ccc(-c4ccnnc4)cc3C(F)(F)F)CC2)c1 [Example 312, N-(1-(4-(4-(pyridazin-4-yl)-2-(trifluoromethyl)benzyl)piperazine-1-carbonyl)-1H-pyrazol-4-yl)methanesulfonamide]
- inhibition at 1 µM (MAGL [1]): ≥ 75%
- inhibition at 1 µM (FAAH [2]): 25 to 50%

Compound: CC(=O)Nc1cnn(C(=O)N2CCN(Cc3cc(Cl)ccc3C(F)(F)F)CC2)c1 [Example 314, N-(1-(4-(5-chloro-2-(trifluoromethyl)benzyl)piperazine-1-carbonyl)-1H-pyrazol-4-yl)acetamide]
- inhibition at 1 µM (MAGL [3]; 1 μM): ≥ 75%
- inhibition at 1 µM (FAAH [4]; 1 μM): ≥ 75%

Compound: CC(=O)Nc1cnn(C(=O)N2CC3CN(Cc4cc(Cl)cc(C(F)(F)F)c4)CC3C2)c1 (stereo not drawn) [Example 315, N-(1-(5-(3-chloro-5-(trifluoromethyl)benzyl)octahydropyrrolo [3,4-c]pyrrole-2-carbonyl)-1H-pyrazol-4-yl)acetamide]
- inhibition at 1 µM (MAGL [3]; 1 μM): ≥ 75%
- inhibition at 1 µM (FAAH [4]; 1 μM): ≥ 75%

Compound: CC(=O)Nc1cnn(C(=O)N2CC3CN(Cc4cccc(Oc5ccc(Cl)cc5)c4)CC3C2)c1 (stereo not drawn) [Example 316, N-(1-(5-(3-(4-chlorophenoxy)benzyl)octahydropyrrolo [3,4-c]pyrrole-2-carbonyl)-1H-pyrazol-4-yl)acetamide]
- inhibition at 1 µM (MAGL [1]): ≥ 75%
- inhibition at 1 µM (FAAH [2]): ≥ 75%

Compound: C#Cc1ccc(CN2CCN(C(=O)n3cc(N(C)C(C)=O)cn3)CC2)cc1 [Example 317, N-(1-(4-(4-ethynylbenzyl)piperazine-1-carbonyl)-1H-pyrazol-4-yl)-N-methylacetamide]
- inhibition at 1 µM (MAGL [3]; 1 μM): ≥ 75%
- inhibition at 1 µM (FAAH [4]; 1 μM): ≥ 75%

Compound: C#Cc1ccc(CN2CCN(C(=O)n3cc(NS(C)(=O)=O)cn3)CC2)cc1 [Example 318, N-(1-(4-(4-ethynylbenzyl)piperazine-1-carbonyl)-1H-pyrazol-4-yl)methanesulfonamide]
- inhibition at 1 µM (MAGL [1]): 25 to 50%
- inhibition at 1 µM (FAAH [2]): ≥ 75%

Compound: N-(1-(5-(3-(4- methoxyphenoxy)benzyl) octahydropyrrolo[3,4-c]pyrrole-2- carbonyl)-1H-pyrazol-4-yl)-N- methylacetamide [Example 243]
- IC50 (MAGL [3]): ≤ 100 nM
- MAGL % inh. 1 μM (mouse) (MAGL [3]; 1 μM): A (A = % inhibition greater than or equal to 75%)
- IC50 (FAAH [4]): ≤ 100 nM
- FAAH % inh. 1 μM (mouse) (FAAH [4]; 1 μM): A (A = % inhibition greater than or equal to 75%)

From patent US10323038B2, “Pyrazole compounds and methods of making and using same” (ABIDE THERAPEUTICS, INC., priority 2015, dated 2019)
